{"source": "patent US20090131356A1", "about": "“miR-15, miR-26, miR-31, miR-145, miR-147, miR-188, miR-215, miR-216, miR-331, mmu-miR-292-3P REGULATED GENES AND PATHWAYS AS TARGETS FOR THERAPEUTIC INTERVENTION” (ASURAGEN, INC., priority 2006, published 2009)", "key": {"PPC-1 cells": {"test_system": "PPC-1 cells", "assay": "Alamar Blue proliferation assay, PPC-1", "assay_type": "cell-based, human", "conditions": "30 nM, normalized to negative control miRNA (100% proliferation)", "source_text": "(§1) The inventors assessed the therapeutic effect of hsa-miR-147 for prostate cancer by using 4 individual human prostate cancer cell lines. To measure cellular proliferation of prostate cancer cells, the following prostate cancer cell lines were used: PPC-1 and PC3, derived from a bone metastasis; Du145, derived from a brain metastasis; RWPE2, derived from prostate cells immortalized by human papillomavirus 18 and transformed by the K-RAS oncogene (Bello et al., 1997; Stone et al., 1978; Brothman et al., 1991). PC3, PPC-1, and Du145 cells lack expression of the prostate-specific antigen (PSA) and are independent of androgen receptor (AR) signaling. In contrast, RWPE2 cells test positive for PSA and AR.\n(§2) PPC-1, Du145 and RWPE2 cells were transfected with synthetic hsa-miR-147 (Pre-miR™-hsa-miR-147, Ambion cat. no. AM17100) or negative control miRNA (NC; Pre-miR™ microRNA Precursor Molecule-Negative Control #2; Ambion cat. no. AM17111) in a 96-well format using a lipid-based transfection reagent. […] Proliferation was assessed 4-7 days post-transfection using Alamar Blue™ (Invitrogen) following the manufacturer's instructions. […] Fluorescent light units (FLU) were measured after 3 hours, normalized to the control, and plotted as percent change in proliferation. […]"}, "Du145 cells": {"test_system": "Du145 cells", "assay": "Alamar Blue proliferation assay, Du145", "assay_type": "cell-based, human", "conditions": "30 nM, normalized to negative control miRNA (100% proliferation)", "source_text": "as §1, §2"}, "[1]": {"test_system": "Du145 human prostate cancer cells", "assay": "Long-term growth curve with repeated electroporation, Du145", "assay_type": "cell-based", "conditions": "1.6 μM miRNA electroporated, repeated on days 7 and 14, day 20", "protocol": "The inventors assessed the therapeutic effect of hsa-miR-15a for prostate cancer by using the Du145 human prostate cancer cell line, derived from a brain metastasis (Stone et al., 1978). The inventors conducted growth curve experiments in the presence of miRNA for up to 20 days. Since in vitro transfections of naked interfering RNAs, such as synthetic miRNA, are transient by nature and compromised by the dilution of the miRNA during ongoing cell divisions, miRNA was administered at multiple time points (Bartlett et al., 2006; Bartlett et al., 2007). To accommodate miRNA delivery into a large quantity of cells, the inventors employed the electroporation method for delivery of hsa-miR-15a or negative control miRNA into Du145 human prostate cancer cells. Briefly, 0.5×10^6 Du145 cells were electroporated with 1.6 μM hsa-miR-15a or negative control using the BioRad Gene Pulser Xcell™ instrument (BioRad Laboratories Inc., Hercules, Calif., USA), seeded and propagated in regular growth medium. Experiments were carried out in triplicates. When the control cells reached confluence (days 7 and 14), cells were harvested, counted and electroporated again with the respective miRNAs. To ensure similar treatment of both conditions as well as to accommodate exponential growth, the cell numbers used for the second and third electroporation were titrated down to the lowest count. The population doubling was calculated from these electroporation events using the formula PD=ln(Nf/N0)/ln2 and adjusting for the fact that approximately 72% of newly seeded cells adhere to the plate. Cell counts were extrapolated and plotted on a linear scale (FIG. 10). Arrows represent electroporation days. Standard deviations are included in the graphs.\nTo evaluate the therapeutic activity of hsa-miR-147 over an extended period of time, the inventors conducted growth curve experiments in the presence of miRNA for up to 21 days. Since in vitro transfections of naked interfering RNAs, such as synthetic miRNA, are transient by nature and compromised by the dilution of the oligo during ongoing cell divisions, miRNA was administered at multiple time points (Bartlett et al., 2006; Bartlett et al., 2007). To accommodate miRNA delivery into a large quantity of cells, the inventors employed the electroporation method to delivery hsa-miR-147 or negative control miRNA into PC3 and Du145 human prostate cancer cells. […] When the control cells reached confluence (days 7 and 14), cells were harvested, counted and electroporated again with the respective miRNAs. […] The population doubling was calculated from these electroporation events using the formula PD=ln(Nf/N0)/ln2 and adjusting for the fact that approximately 72% of newly seeded cells adhere to the plate. […]"}}, "data": [{"substance": "hsa-miR-147: Synthetic pre-miR-147 (Ambion AM17100; Dharmacon in vivo); mature sequence GUGUGUGGAAAUGCUUCUGC, MIMAT0000251, SEQ ID NO:114 (synthetic pre-miR (Ambion/Dharmacon), chemistry not given here; listed as Homo sapiens)", "values": [{"measurement": "% proliferation", "setting": "PPC-1 cells", "result": 76.98, "unit": "%"}, {"measurement": "% proliferation", "setting": "Du145 cells", "result": 61.50, "unit": "%"}, {"measurement": "cells relative to cells electroporated with negative control miRNA", "setting": "[1]", "result": 2.90, "unit": "%"}, {"measurement": "inhibition of Du145 cell growth", "setting": "[1]; relative to proliferation of control cells (100%)", "result": 97.1, "unit": "%"}]}]}
